Experiments:
[1] = system: Kyn pathway; assay: Kynurenine pathway metabolites measurement in plasma; type: in vivo; conditions: long-term corticosterone-treated mice, chronic AdipoRon treatment
Protocol: Data were digitized at 5-10 kHz using a Digidata interface coupled to a microcomputer running pClamp 9 (Axon Instruments, USA). Current-clamp data were digitized at 0.5 kHz using the same interface. Potentials were digitally filtered at 1-3 kHz. Average data were expressed as mean ± SEM, n = number of neurons, N = number of mice. • Western blot analysis - Total proteins were extracted from mouse hypothalamus by homogenization in lysis buffer (50mM Tris-HCl, pH7.5, 150mM NaCl, 5mM EDTA containing 0.5% Triton X-100 and 0.5% sodium deoxycholate with a coktail of protease and phosphatase inhibitors). Equal amounts of total proteins (50µg) determined by the Bradford method (BioRad) were separated onto 12% SDS-PAGE, then transferred on nitrocellulose membrane (Schleicher & Schuell, Dassel, Germany). […] IFNγ, IL1β, IL6, and TNFα, levels were measured using an electro-chemo-luminescence (ECL)-based assay (U-plex, MesoScaleDiscovery) following manufacturer instructions. Results were standardized according to the protein concentration of each sample determined by the Bradford method. • Kynurenine pathway metabolites measurement - Plasma levels of L-kynurenin (L-Kyn), tryptophan (Trp), kynurenin acid (Kyn ac), 5-HT and 5-HIAA were determined as follows: 25µl of plasma was deproteinated with 150µl of cold MeOH. […]

[2] = system: wt mice; assay: Rotarod, motor coordination; type: in vivo; conditions: chronic ip 1mg/kg for twenty consecutive days
Protocol: All behavioral testing were conducted during the light phase (between 09:00 and 14:00 am) in compliance with the Institutional Animal Care and Use Committee of the University of Nice-Sophia Antipolis (permission number 010344.01 from the French "Ministère de l'Enseignement Supérieur et de la Recherche" granted to Dr. Joëlle Chabry). • Forced Swimming test (FST) - Mice were placed an inescapable transparent tank (20cm diameter, 30cm deep) filled with water (23°C ± 0.5) for six minutes as previously described by Porsolt et al. (1977). The immobility duration, as an index of the resignation, was timed during the last four minutes of the test. A mouse was considered immobile when it remained floating with only slight movements to keep its head out of the water. • Open-field test (OF) - Locomotor activity was determined using open-field (OF) activity. […] Twenty-four hours later, the latency to fall, an index of the motor coordination, was recorded on accelerating rod (from 10 to 40 rpm/min). • Light & Dark test (L&D) - The L&D place preference test was used to assess the anxiety-like behavior. […] To initiate testing, mice were placed into the light side and activity was recorded for 5 minutes. […] The amount of water and 1% sucrose solution was measured twenty-four hours later. […]

## O=C(COc1ccc(C(=O)c2ccccc2)cc1)NC1CCN(Cc2ccccc2)CC1 [AdipoRon, 2-(4-Benzoylphenoxy)-N-[1-(phenylmethyl)-4-piperidinyl]-acetamide]
[1]
  Kyn ac:L-Kyn ratio: restoring the physiological
  L-Kyn:Trp ratio: restoring the physiological
[2]
  motor coordination (rotarod): did not significantly modify

Reference: patent EP3431468B1, “USE OF ADIPONECTIN RECEPTOR AGONISTS IN TREATING DEPRESSION, ANXIETY AND NEUROINFLAMMATION” (CENTRE NATIONAL DE LA RECHERCHE SCIENTIFIQUE, priority 2017, dated 2019)
